Data as given in PMC4047118, “BM-1197: A Novel and Specific Bcl-2/Bcl-xL Inhibitor Inducing Complete and Long-Lasting Tumor Regression In Vivo” (PLoS ONE, 2014).
Read-outs that look alike come from different tables or passages of the source.

Key:
Bcl-xL = Bcl-xL (Homo sapiens, UniProt Q07817); assay: fluorescence-polarization (FP) binding assay, Bcl-xL; conditions: means ± SD (n≥3)
Excerpt: (§1) BM-1197 ( Fig 1 ), was synthesized in a similar manner as described for BM-1074 [16]. We evaluated the binding affinities of BM-1197 to Bcl-2, Bcl-xL and Mcl-1 proteins using our optimized fluorescence-polarization (FP) binding assays.
Data are expressed as means ± SD (n≥3).

Mcl-1 = Mcl-1 (Homo sapiens, UniProt Q07820); assay: fluorescence-polarization (FP) binding assay, Mcl-1
Mcl-1, sequence (Q07820 whole entry): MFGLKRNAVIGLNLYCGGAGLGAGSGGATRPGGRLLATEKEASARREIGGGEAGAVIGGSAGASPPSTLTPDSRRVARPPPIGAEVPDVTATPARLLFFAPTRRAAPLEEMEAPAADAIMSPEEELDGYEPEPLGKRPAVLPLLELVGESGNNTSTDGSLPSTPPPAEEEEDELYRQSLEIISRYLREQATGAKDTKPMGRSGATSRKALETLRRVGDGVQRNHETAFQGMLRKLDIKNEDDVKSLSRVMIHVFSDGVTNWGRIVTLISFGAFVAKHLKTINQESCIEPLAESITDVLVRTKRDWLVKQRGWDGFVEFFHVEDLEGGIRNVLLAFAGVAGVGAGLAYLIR
Excerpt: as §1, with “assays. […] Of note, the binding affinities of these compounds to Bcl-2 and Bcl-xL proteins are close to the lower limits of the assay and their precise Ki values could not be determined accurately using our competitive, FP binding assays.” for “assays.”

[1] = tested on: MCL1-deficient (MCL1−/−) MEF cells; assay: cell growth inhibition, WST assay, MCL1-deficient MEF; type: cell-based, mouse
Experimental: (§2) All the SCLC cell lines were purchased from American Type Culture Collection (Manassas, VA) and cultured as recommended. All these cell lines were passaged fewer than 6 months after purchase. MCL1 knockout (MCL1^−/−) MEF cells were kindly provided by Dr. David Huang (The Walter and Eliza Hall Institute of Medical Research, Melbourne, Australia). Cell growth inhibition was evaluated by means of a WST-8 assay (Dojindo, Rockville, MD) as described previously. Mitochondrial membrane potential was determined by JC-1 staining using a JC-1 Mitochondrial Membrane Potential Assay kit (Cayman). Apoptosis analysis was performed using an Annexin V/propidium iodide (PI) apoptosis detection kit (Roche Applied Sciences, Indianapolis, IN).
(B) MCL1^−/− cells were treated with 100 nM of BM-1197 for 16 h and stained with Annexin V/PI for flow cytometry. […] They are given in the order upper left, upper right, lower left, lower right.

Bcl-2 = molecular target: T1, Bcl-2 (Mus musculus, UniProt P10417); assay: cellular thermal shift assay (CETSA), Bcl-2; type: cell-based; conditions: 1 µM, 1 h, MEF MCL1−/− cells
T1 construct: endogenous in cells; host or cells: MEF MCL1-/- cells
T1 sequence (P10417 whole entry): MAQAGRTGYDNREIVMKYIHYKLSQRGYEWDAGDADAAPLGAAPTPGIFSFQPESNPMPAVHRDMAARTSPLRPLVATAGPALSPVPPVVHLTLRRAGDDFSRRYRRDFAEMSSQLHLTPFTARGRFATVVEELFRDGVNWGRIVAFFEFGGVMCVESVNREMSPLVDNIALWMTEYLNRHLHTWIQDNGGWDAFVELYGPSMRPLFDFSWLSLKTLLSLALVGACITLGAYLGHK
Experimental: Drug-target engagement was assessed using CETSA as described by Molina et al.. Briefly, cells were treated with drugs for 1 h, then harvested, washed with PBS, and resuspended in PBS. The resuspended cells were freeze-thawed 4 times. The soluble fraction (lysate) was separated from cell debris by centrifugation at 20000×g for 20 minutes at 4°C and then analyzed by Western blots.
Drug-treated cells were heated at gradient temperature from 42°C to 62°C for 3 min then freeze-thawed 4 times. The soluble fractions of the lysed cells were analyzed by immunoblotting. (B) MEF MCL1^− ^/− cells were treated with drugs at the indicated doses for 1 h before collected for CETSA.

H1417 = assay: SCLC cell growth inhibition (WST-8), H1417; type: cell-based; conditions: Homo sapiens, NCI-H1417; 96-h incubation, means ± SD (n = 3–6)
Experimental: as §2

H1963 = assay: SCLC cell growth inhibition (WST-8), H1963; type: cell-based; conditions: Homo sapiens, NCI-H1963; 96-h incubation, means ± SD (n = 3–6)
Experimental: as §2

H187 = assay: SCLC cell growth inhibition (WST-8), H187; type: cell-based; conditions: Homo sapiens, NCI-H187; 96-h incubation, means ± SD (n = 3–6)
Experimental: as §2

DMS79 = assay: SCLC cell growth inhibition (WST-8), DMS79; type: cell-based; conditions: Homo sapiens, DMS-79; 96-h incubation, means ± SD (n = 3–6)
Experimental: as §2

H889 = assay: SCLC cell growth inhibition (WST-8), H889; type: cell-based; conditions: Homo sapiens, NCI-H889; 96-h incubation, means ± SD (n = 3–6)
Experimental: as §2

SW1271 = assay: SCLC cell growth inhibition (WST-8), SW1271; type: cell-based; conditions: Homo sapiens, 96-h incubation, means ± SD (n = 3–6)
Experimental: as §2

DMS53 = assay: SCLC cell growth inhibition (WST-8), DMS53; type: cell-based; conditions: Homo sapiens, DMS-53; 96-h incubation, means ± SD (n = 3–6)
Experimental: as §2

H82 = assay: SCLC cell growth inhibition (WST-8), H82; type: cell-based; conditions: Homo sapiens, NCI-H82; 96-h incubation, means ± SD (n = 3–6)
Experimental: as §2

DMS273 = assay: SCLC cell growth inhibition (WST-8), DMS273; type: cell-based; conditions: Homo sapiens, DMS-273; 96-h incubation, means ± SD (n = 3–6)
Experimental: as §2

H196 = assay: SCLC cell growth inhibition (WST-8), H196; type: cell-based; conditions: Homo sapiens, NCI-H196; 96-h incubation, means ± SD (n = 3–6)
Experimental: as §2

[2] = tested on: panel of 12 SCLC cell lines; assay: growth inhibition in a panel of 12 SCLC cell lines (summary); type: cell-based, human; conditions: for IC50: Homo sapiens
Experimental: as §2

H146 xenograft tumors = assay: H146 subcutaneous xenograft model; type: in vivo, SCID mice
Experimental: (§3) Tumor sizes were measured 2–3 times per week. Tumor growth inhibition was calculated by using the formula: 100% (mean volume of controls - mean volume of treated)/mean volume of controls.
(§4) Figure 10 In vivo antitumor activity of BM-1197. […] Data shown are mean ± SEM for 6–8 mice. (E & F) SCID mice bearing H146 or H1963 cells were treated with 10 mg/kg of BM-1197 IV for the indicated times. Tumor lysates were analyzed by immunoblotting.

H1963 xenograft tumors = assay: H1963 subcutaneous xenograft model; type: in vivo, SCID mice
Experimental: as §3, §4

[3] = IV daily 10 mg/kg, 5 days per week for 2 weeks, 8 mice
[4] = single dose 10 mg/kg IV, as early as 3 h, persisting at least 24 hr

Bcl-xL, sequence (Q07817 whole entry): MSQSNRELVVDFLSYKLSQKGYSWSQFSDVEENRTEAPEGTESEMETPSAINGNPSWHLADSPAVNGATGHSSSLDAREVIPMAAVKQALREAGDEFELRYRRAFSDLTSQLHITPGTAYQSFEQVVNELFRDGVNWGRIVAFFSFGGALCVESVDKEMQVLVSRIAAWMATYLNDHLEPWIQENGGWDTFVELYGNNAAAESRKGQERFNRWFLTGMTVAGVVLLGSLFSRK

Cc1c(S(C)(=O)=O)c(-c2cc(F)cc(N3CCN(c4ccc(NS(=O)(=O)c5ccc(N[C@H](CCN6CCC(O)CC6)CSc6ccccc6)c(S(=O)(=O)C(F)(F)F)c5)cc4)CC3)c2)c(-c2ccc(Cl)cc2)n1C(C)C [BM-1197]
IC50 (Bcl-xL): 5.2 ± 0.6 nM | Ki (Bcl-xL): < 1 nM | binding to Mcl-1 (Mcl-1; at 2 µM): fails to bind | selectivity over Mcl-1 (Mcl-1; versus Bcl-2 and Bcl-xL): > 1,000 fold | times more potent than ABT-263 in inhibition of cell growth ([1]; MCL1−/− cells): ~8 times | IC50 ([1]; Mus musculus, MEF, 72 h, 3 days, WST assay): 5 ± 3 nM | thermal stability of Bcl-2 protein (Bcl-2): enhanced | IC50 (H1417): 3 ± 1 nM | IC50 (H1963): 5 ± 2 nM | IC50 (H187): 31 ± 4 nM | IC50 (DMS79): 54 ± 30 nM | IC50 (H889): 82 ± 20 nM | IC50 (SW1271): 306 ± 116 nM | IC50 (DMS53): 538 ± 254 nM | IC50 (H82): 698 ± 354 nM | IC50 (DMS273): > 2000 nM | IC50 (H196): > 2000 nM | fold more potent than ABT-263 ([2]; 4 cell lines most sensitive to BM-1197): 5-26 fold | IC50 ([2]; 2 of 12 SCLC cell lines, read-out: IC50 values in the 2 cell lines with weak activity): > 2000 nM | IC50 ([2]; 3 of 12 SCLC cell lines, read-out: IC50 values in the 3 cell lines with moderate activity): ~600 nM | IC50 ([2]; 7 of 12 SCLC cell lines, read-out: IC50 values in the 7 cell lines with potent activity): 3 to 82 nM | mice tumor free 50 days after the end of the weekly treatment (H146 xenograft tumors; 15 mg/kg weekly IV): 5 of 8 | mice with complete tumor regression after eight weekly doses (H146 xenograft tumors; 15 mg/kg weekly IV): 7 of 8 | mice with complete tumor regression after five weekly doses (H146 xenograft tumors; 15 mg/kg weekly IV): 4 of 8 | decrease of mean tumor volume after 7 doses (H146 xenograft tumors; IV daily 10 mg/kg): 85% | decrease of mean tumor volume after two doses (H146 xenograft tumors; IV daily 10 mg/kg): 40% | mice tumor free 60 days after the end of the treatment (H146 xenograft tumors; [3]): 5 mice | mice tumor free for at least 32 days after the end of the treatment (H146 xenograft tumors; [3]): 8 mice | mice with rapid and complete tumor regression (H146 xenograft tumors; [3]): 8 mice | mean tumor volume after two doses (H146 xenograft tumors; IV daily 10 mg/kg, from 114 mm^3): 69 mm^3 | weight loss compared to control group (H146 xenograft tumors; all dose-schedules in H146 model, no other signs of toxicity): no statistically significant weight loss | reduction of mean tumor volume on day 7 (H146 xenograft tumors; single 10 mg/kg dosing, weekly IV schedule): 32% | tumor regression on day 7 (H146 xenograft tumors; single 15 mg/kg dosing, weekly IV schedule): 66% | apoptosis biomarkers in H146 tumors (H146 xenograft tumors; [4]): rapid and robust caspase-3 activation and PARP cleavage | decrease of mean tumor volume seven days after initiation of treatment (H1963 xenograft tumors; 10 mg/kg daily IV dosing): > 90% | mice with tumor regrown 40 days after the last dose (H1963 xenograft tumors; 10 mg/kg daily IV dosing): 1 of 6 | mice with complete tumor regression (H1963 xenograft tumors; 10 mg/kg daily IV dosing (5 days per week), 6 mice): 6 mice | mice tumor free for 61 days after the last dose (H1963 xenograft tumors; 10 mg/kg daily IV dosing, 6 mice): 5 mice | weight loss (H1963 xenograft tumors; both daily and weekly dose-schedules): < 10% | mice with palpable tumor on day 59 (H1963 xenograft tumors; daily dosing at 10 mg/kg): one of six mice | apoptosis biomarkers in H1963 tumors (H1963 xenograft tumors; [4]): rapid and robust caspase-3 activation and PARP cleavage | duration of complete tumor regression in 5 out of 6 mice (H1963 xenograft tumors; weekly dosing (15 mg/kg)): 38 days | duration of complete tumor regression in all mice (H1963 xenograft tumors; weekly dosing (15 mg/kg)): 17 days | reduction of mean tumor volume after a single dose (H1963 xenograft tumors; weekly dosing (15 mg/kg)): 66% | tumor response after two doses (H1963 xenograft tumors; weekly dosing (15 mg/kg)): complete tumor regression | mice with re-occurring tumor on day 59 (H1963 xenograft tumors; weekly dosing at 15 mg/kg): all mice
